{"source": "paper PMC4264192", "about": "“Synthesis and Biological Evaluation of 2-Thioxopyrimidin-4(1H)-one Derivatives as Potential Non-Nucleoside HIV-1 Reverse Transcriptase Inhibitors” (International Journal of Molecular Sciences, 2014)", "key": {"[1]": {"tested_on": "HIV-1", "experiment": "Inhibition of HIV-1 replication in MT-4 cells (HIV-1 antigen ELISA or MTT)", "assay_type": "cell-based, human immunodeficiency virus type 1", "settings": "for pIC50: Human immunodeficiency virus 1, MT4, 144 h, read-out: IC50, 50% inhibitory concentration (anti-HIV-1 activity); for pEC50: Human immunodeficiency virus 1, MT4, read-out: EC50 against wild-type HIV-1; for activity against HIV-1 replication (in words) / Selectivity index (SI), CC50/IC50: MT-4 cells; for activity against HIV-1 replication (in words): less than 30% reduction of HIV expression considered without biological activity; for Selectivity index (SI), CC50/IC50: ratio CC50/IC50", "description": "Compounds mediating less than 30% reduction of HIV expression were considered without biological activity."}, "[2]": {"experiment": "Cytotoxic effect in uninfected MT-4 cultures", "assay_type": "cell-based", "settings": "human, uninfected MT-4 cells; read-out: CC50, 50% cytotoxic concentration"}, "[3]": {"settings": "HIV-1 in MT-4 cells, six days, 0.005 MOI"}}, "note": "pEC50, pIC50: −log10 of the molar value. Like-named read-outs stand apart in the source and are kept apart here.", "data": [{"smiles": "C=CCc1c(Cc2ccccc2)nc(SC2CCCC2)[nH]c1=O", "note": "[Compound 2j, 5-Allyl 6-benzyl-2-(cyclopentylthio)pyrimidin-4(3H)-one]", "values": [{"measurement": "pIC50", "setting": "[1]; [3]", "value": 5.59}, {"measurement": "pEC50", "setting": "[1]", "value": 5.59}, {"measurement": "CC50 at 6 days", "setting": "[2]", "value": "> 100", "unit": "µM"}]}, {"smiles": "C=CCc1c(Cc2ccccc2)nc(SCC(=O)OCC)[nH]c1=O", "note": "[Compound 3b, 5-Allyl-6-benzyl-2-(ethylacetatethio)pyrimidin-4(3H)-one]", "values": [{"measurement": "activity against HIV-1 replication (in words)", "setting": "[1]", "value": "inactive"}, {"measurement": "melting point", "value": "118 to 120", "unit": "°C"}]}, {"smiles": "C=CCc1c(Cc2ccccc2)nc(SCCOCOCCBr)[nH]c1=O", "note": "[Compound 2g, 5-Allyl-6-benzyl-2-(2-((2-bromoethoxy)methoxy)ethylthio)pyrimidin-4(3H)-one]", "values": [{"measurement": "melting point", "value": "192 to 194", "unit": "°C"}]}, {"smiles": "C=CCc1c(Cc2ccccc2)nc(SCC(CC)CC)[nH]c1=O", "note": "[Compound 2i, 5-Allyl-6-benzyl-2-(2-ethylbutylthio)pyrimidin-4(3H)-one]", "values": [{"measurement": "melting point", "value": "141 to 143", "unit": "°C"}]}, {"smiles": "CCOCn1c(Cc2ccccc2)c(C(C)C)c(=O)[nH]c1=O", "note": "[MKC-442, 6-benzyl-1-(ethoxymethyl)-5-isopropylpyrimidine-2,4-dione, reference compound]", "values": [{"measurement": "pIC50", "setting": "[1]; [3]", "value": 8.30}, {"measurement": "Selectivity index (SI), CC50/IC50", "setting": "[1]", "value": "28,000"}, {"measurement": "CC50 at 6 days", "setting": "[2]", "value": 141, "unit": "µM"}]}, {"smiles": "C=CCc1c(Cc2ccccc2)nc(SCC(OCC)OCC)[nH]c1=O", "note": "[Compound 9, 5-Allyl 6-benzyl-2-(2,2-diethoxyethylthio)pyrimidin-4(3H)-one]", "values": [{"measurement": "activity against HIV-1 replication (in words)", "setting": "[1]", "value": "inactive"}, {"measurement": "melting point", "value": "156 to 158", "unit": "°C"}]}, {"smiles": "O=c1[nH]c([S+]([O-])C2CCCCC2)nc(Cc2ccccc2)c1CC1CO1", "note": "(stereo not shown) [Compound 7, 6-Benzyl-2-(cyclohexylsulfinyl)-5-((oxiran-2-yl)methyl)pyrimidin-4(3H)-one]", "values": [{"measurement": "melting point", "value": "190 to 192", "unit": "°C"}]}, {"smiles": "C=CCSc1nc(Cc2ccccc2)c(CC=C)c(=O)[nH]1", "note": "[Compound 2e, 5-Allyl 6-benzyl-2-(allylthio)pyrimidin-4(3H)-one]", "values": [{"measurement": "pIC50", "setting": "[1]", "value": 5.60}, {"measurement": "pEC50", "setting": "[1]", "value": 5.60}, {"measurement": "melting point", "value": "114 to 116", "unit": "°C"}, {"measurement": "CC50 at 6 days", "setting": "[2]", "value": 25, "unit": "µM"}]}, {"smiles": "C=CCc1c(Cc2ccccc2)nc(SCCCO)[nH]c1=O", "note": "[Compound 11c, 2-(3-Hydroxypropylthio)-5-allyl-6-benzylpyrimidin-4(3H)-one]", "values": [{"measurement": "pIC50", "setting": "[1]; [3]", "value": 6.49}, {"measurement": "pEC50", "setting": "[1]", "value": 6.49}, {"measurement": "Selectivity index (SI), CC50/IC50", "setting": "[1]", "value": ">312"}, {"measurement": "melting point", "value": "123 to 125", "unit": "°C"}, {"measurement": "CC50 at 6 days", "setting": "[2]", "value": "> 100", "unit": "µM"}]}, {"smiles": "C=CCc1c(Cc2ccccc2)nc(SCSC)[nH]c1=O", "note": "[Compound 11a, 2-((Methylthio)methylthio)-5-allyl-6-benzylpyrimidin-4(3H)-one]", "values": [{"measurement": "pIC50", "setting": "[1]; [3]", "value": 5.50}, {"measurement": "Selectivity index (SI), CC50/IC50", "setting": "[1]", "value": ">31"}, {"measurement": "melting point", "value": "218 to 220", "unit": "°C"}, {"measurement": "CC50 at 6 days", "setting": "[2]", "value": "> 100", "unit": "µM"}]}, {"smiles": "C=CCc1c(Cc2ccccc2)nc(SCCCBr)[nH]c1=O", "note": "[Compound 2c, 2-(3-Bromopropylthio)-5-allyl-6-benzylpyrimidin-4(3H)-one]", "values": [{"measurement": "activity against HIV-1 replication (in words)", "setting": "[1]", "value": "inactive"}, {"measurement": "melting point", "value": "138 to 140", "unit": "°C"}]}, {"smiles": "Cc1cn([C@H]2C[C@H](N=[N+]=[N-])[C@@H](CO)O2)c(=O)[nH]c1=O", "note": "[AZT, azidothymidine, reference compound]", "values": [{"measurement": "pIC50", "setting": "[1]; [3]", "value": 7.40}, {"measurement": "Selectivity index (SI), CC50/IC50", "setting": "[1]", "value": "1,300"}, {"measurement": "CC50 at 6 days", "setting": "[2]", "value": 52, "unit": "µM"}]}, {"smiles": "C=CCc1c(Cc2ccccc2)n2c(nc1=O)SCC2OCC", "note": "(stereo not shown) [Compound 10, 6-Allyl-5-benzyl-3-ethoxy-2,3-dihydrothiazolo[3,2-a]pyrimidin-7-one]", "values": [{"measurement": "melting point", "value": "162 to 164", "unit": "°C"}]}, {"smiles": "C=CCc1c(Cc2ccccc2)nc(SCCOCOC)[nH]c1=O", "note": "[Compound 2f, 5-Allyl-6-benzyl-2-(2-(methoxymethoxy)ethylthio)pyrimidin-4(3H)-one]", "values": [{"measurement": "melting point", "value": "188 to 190", "unit": "°C"}]}, {"smiles": "C=CCc1c(Cc2ccccc2)nc(SCC(=O)OC)[nH]c1=O", "note": "[Compound 3a, 5-Allyl-6-benzyl-2-(methylacetatethio)pyrimidin-4(3H)-one]", "values": [{"measurement": "pIC50", "setting": "[1]; [3]", "value": 4.46}, {"measurement": "Selectivity index (SI), CC50/IC50", "setting": "[1]", "value": ">2"}, {"measurement": "melting point", "value": "117 to 119", "unit": "°C"}, {"measurement": "CC50 at 6 days", "setting": "[2]", "value": "> 100", "unit": "µM"}]}, {"smiles": "C=CCc1c(Cc2ccccc2)nc(SCCO)[nH]c1=O", "note": "[Compound 2b, 2-(2-Hydroxyethylthio)-5-allyl-6-benzylpyrimidin-4(3H)-one]", "values": [{"measurement": "melting point", "value": "164 to 166", "unit": "°C"}]}, {"smiles": "C=CCc1c(Cc2ccccc2)nc(SC2CCCCC2)[nH]c1=O", "note": "[Compound 6, 5-Allyl 6-benzyl-2-(cyclohexylthio)pyrimidin-4(3H)-one]", "values": [{"measurement": "melting point", "value": "138 to 140", "unit": "°C"}]}, {"smiles": "C=CCc1c(Cc2ccccc2)nc(SCOCC)[nH]c1=O", "note": "[Compound 11b, 5-Allyl-6-benzyl-2-(ethoxymethylthio)pyrimidin-4(3H)-one]", "values": [{"measurement": "melting point", "value": "142 to 144", "unit": "°C"}]}, {"smiles": "C=CCc1c(Cc2ccccc2)nc(SCCCCCC)[nH]c1=O", "note": "[Compound 2d, 5-Allyl-6-benzyl-2-(hexylthio)pyrimidin-4(3H)-one]", "values": [{"measurement": "pIC50", "setting": "[1]", "value": 5.15}, {"measurement": "melting point", "value": "153 to 155", "unit": "°C"}, {"measurement": "CC50 at 6 days", "setting": "[2]", "value": 35, "unit": "µM"}]}, {"smiles": "C=CCc1c(Cc2ccccc2)nc(SCC(C)C)[nH]c1=O", "note": "[Compound 2h, 5-Allyl-6-benzyl-2-(isobutylthio)pyrimidin-4(3H)-one]", "values": [{"measurement": "pIC50", "setting": "[1]; [3]", "value": 6.00}, {"measurement": "Selectivity index (SI), CC50/IC50", "setting": "[1]", "value": ">100"}, {"measurement": "melting point", "value": "134 to 136", "unit": "°C"}, {"measurement": "CC50 at 6 days", "setting": "[2]", "value": "> 100", "unit": "µM"}]}, {"smiles": "C=CCc1c(Cc2ccccc2)nc(SC2CCOC2=O)[nH]c1=O", "note": "(stereo not shown) [Compound 2k, 5-Allyl-6-benzyl-2-(tetrahydro-2-oxofuran-3-ylthio)pyrimidin-4(3H)-one]", "values": [{"measurement": "activity against HIV-1 replication (in words)", "setting": "[1]", "value": "inactive"}, {"measurement": "melting point", "value": "153 to 155", "unit": "°C"}]}, {"smiles": "C=CCc1c(Cc2ccccc2)nc(SCC(=O)NC)[nH]c1=O", "note": "[Compound 4, 2-(5-Allyl-4-benzyl-1,6-dihydro-6-oxopyrimidin-2-ylthio)-N-methylacetamide]", "values": [{"measurement": "activity against HIV-1 replication (in words)", "setting": "[1]", "value": "inactive"}]}, {"smiles": "C=CCc1c(Cc2ccccc2)nc(SC)[nH]c1=O", "note": "[Compound 2a, 5-Allyl 6-(benzyl)-2-(methylthio)pyrimidin-4(3H)-one]", "values": [{"measurement": "pIC50", "setting": "[1]; [3]", "value": 4.57}, {"measurement": "Selectivity index (SI), CC50/IC50", "setting": "[1]", "value": ">3"}, {"measurement": "melting point", "value": "214 to 216", "unit": "°C"}, {"measurement": "CC50 at 6 days", "setting": "[2]", "value": "> 100", "unit": "µM"}]}, {"smiles": "C=CCc1c(Cc2ccccc2)nc(SC2CCCCC2)[nH]c1=S", "note": "[Compound 8, 5-Allyl-6-benzyl-2-(cyclohexylthio)pyrimidine-4(3H)-thione]", "values": [{"measurement": "pIC50", "setting": "[1]; [3]", "value": 5.41}, {"measurement": "Selectivity index (SI), CC50/IC50", "setting": "[1]", "value": ">25"}, {"measurement": "melting point", "value": "143 to 145", "unit": "°C"}, {"measurement": "CC50 at 6 days", "setting": "[2]", "value": "> 100", "unit": "µM"}]}]}
